The values below come from patent US20170333391A1, “METHOD FOR DELAYING THE ONSET OF PULMONARY FIBROSIS OR TREATING PULMONARY FIBROSIS” (EVERFRONT BIOTECH INC., priority 2016, published 2017).

The test system of assay [1] is Rat type II alveolar cell, L2 cell line. The experiment in a line: Cell survival test (MTT analysis) under H2O2 oxidative stress. Type of assay: cell-based. The conditions noted are these: 24 hours, control group = 100%. The method, then: The rat type II alveolar cell, L2 cell line (ATCC® CCL149™) were seeded into a 96-well plate at a density of 5×10^3 cells/well, 48 wells in total (separated into a control group and five experimental groups, 8 wells for each group). The cells were cultured until the next day, and then the mediums were removed. Each group was respectively treated under the following conditions to conduct follow-up experiments:
(1) Control group: cells were cultured in a F-12K medium (Kaighn's Modification of Ham's F-12 Medium, ATCC® 30-2004™) for 24 hours;
(2) Group 1: cells were cultured in a F-12K medium containing H2O2 (0.1 mM) for 24 hours;
(3) Group 2: cells were cultured in a F-12K medium containing H2O2 (0.1 mM) and compound (1) (5 μg/ml) for 24 hours;
(4) Group 3: cells were cultured in a F-12K medium containing H2O2 (0.1 mM) and N-acetylcysteine (NAC) (2 mM) for 24 hours;
(5) Group 4: cells were cultured in a F-12K medium containing H2O2 (0.2 mM) and compound (1) (5 μg/ml) for 24 hours; and
(6) Group 5: cells were cultured in a F-12K medium containing H2O2 (0.2 mM) and NAC (2 mM) for 24 hours.
The mediums were removed after culturing was complete, and then each group was respectively treated under the following conditions: F-12K mediums containing 10% of 3-(4,5-Dimethylthiazol-2-yl)-2,5-diphenyltetrazolium bromide (MTT) were added into each well, and cultured for 1 hour. Thereafter, the mediums were removed, and a suitable amount of dimethyl sulfoxide (DMSO) was added into the wells. An Enzyme-Linked ImmunoSorbent Assay reader (ELISA reader) was then used for detecting the absorbance of each group at a wavelength of 595 nm (OD595nm). The average value of each group was respectively calculated (n=8), and then the result of the control group served as the basis for calculating the relative survival rates of the other groups.

The next assay concerns BMP-7 protein. The experiment in a line: BMP-7 protein expression in TGF-β1-induced NHLF, western blotting (2-2). It is filed as cell-based, human. The conditions noted are these: TGF-β1-only control group = 1. The method, then: Normal Human lung fibroblasts (NHLF) were seeded into 6 cm culture dishes at a density of 2×10^5 cells/dish, comprising a control group and six experimental groups (7 dishes in total). The cells were cultured until the next day, and then the mediums were removed. Each group was respectively treated under the following conditions to conduct follow-up experiments: • (1) Positive control group: cells were cultured in a FGM-2 medium containing 1% serum and TGF-β1 (5 ng/ml) for 36 hours; • (2) Group I: cells were firstly cultured in a FGM-2 medium containing 1% serum and TGF-β1 (5 ng/ml) for 12 hours, and then compound (1) was added into the medium to provide a final concentration of 15 μg/ml; thereafter, the cells were cultured for another 24 hours; • (3) Group II: cells were firstly cultured in a FGM-2 medium containing 1% serum and TGF-β1 (5 ng/ml) for 12 hours, and then compound (1) was added into the medium to provide a final concentration of 25 μg/ml; thereafter, the cells were cultured for another 24 hours; • (4) Group III: cells were firstly cultured in a FGM-2 medium containing 1% serum and TGF-β1 (5 ng/ml) for 12 hours, and then compound (1) was added into the medium to provide a final concentration of 35 μg/ml; thereafter, the cells were cultured for another 24 hours; • (5) Group IV: cells were firstly cultured in a FGM-2 medium containing 1% serum and TGF-β1 (5 ng/ml) for 12 hours, and then the Pirfenidone was added into the medium to provide a final concentration of 100 μg/ml; thereafter, the cells were cultured for another 24 hours; • (6) Group V: cells were firstly cultured in a FGM-2 medium containing 1% serum and TGF-β1 (5 ng/ml) for 12 hours, and then the Pirfenidone was added into the medium to provide a final concentration of 250 μg/ml; thereafter, the cells were cultured for another 24 hours; and • (7) Group VI: cells were firstly cultured in a FGM-2 medium containing 1% serum and TGF-β1 (5 ng/ml) for 12 hours, and then the Pirfenidone was added into the medium to provide a final concentration of 500 μg/ml; thereafter, the cells were cultured for another 24 hours.
Thereafter, the proteins in the cells of each group were extracted, and the expressions of type I collagen, BMP-7 protein and TGF-β protein in the NHLF cells of each group were measured with western blotting. The results of the control group served as the basis for calculating the relative expression levels of the other groups.
In general terms: A western blot detects proteins with antibodies after separation by electrophoresis.

Another assay deals with α-SMA. The experiment in a line: α-SMA mRNA expression in NHLF, Q-PCR (3-2). It is filed as cell-based, human. The conditions noted are these: 24 hours. The method, then: Normal Human lung fibroblasts (NHLF) were seeded into 6-well plate at a density of 10^5 cells/well, comprising a control group and five experimental groups (6 wells in total). The cells were cultured until the next day, and then the mediums were removed. Each group was respectively treated under the following conditions to conduct follow-up experiments: • (1) Control group: cells were cultured in a FGM-2 medium containing 1% serum for 24 hours; • (2) Group α: cells were cultured in a FGM-2 medium containing 1% serum and compound (1) (5 μg/ml) for 24 hours; • (3) Group β: cells were cultured in a FGM-2 medium containing 1% serum and compound (1) (10 μg/ml) for 24 hours; • (4) Group γ: cells were cultured in a F-12K medium containing 1% serum and H2O2 (0.1 mM) for 24 hours; • (5) Group δ: cells were cultured in a F-12K medium containing 1% serum, H2O2 (0.1 mM) and compound (1) (5 μg/ml) for 24 hours; and • (6) Group ε: cells were cultured in a F-12K medium containing 1% serum, H2O2 (0.1 mM) and compound (1) (10 μg/ml) for 24 hours.
Thereafter, the total RNA of cells taken from each group were extracted, and then reverse transcription was conducted on the total RNA by using a QuantiTect Reverse Transcription Kit to obtain cDNA therefrom. A Q-PCR was then conducted on the cDNA to analyze the mRNA expression levels of genes such as α-SMA and TGF-β, wherein GAPDH gene served as an internal control. The results of the control group served as the basis for calculating the relative expression levels of the other groups.

Take `CCCC=C1OC(=O)c2ccccc21` [compound (1)]: the Relative survival rate in assay [1] (Group 2: H2O2 0.1 mM + compound (1) 5 μg/ml, H2O2 0.1 mM alone = 38.9%) was 109.4%; in assay [1] (Group 4: H2O2 0.2 mM + compound (1) 5 μg/ml), 80.6%. For the same molecule, the “Relative expression level (fold) BMP-7 protein” value stood at 1.57 fold in the assay on BMP-7 protein (Group I: TGF-β1 5 ng/ml 12 h, then compound (1) 15 μg/ml 24 h); 1.80 fold with BMP-7 protein (Group II: TGF-β1 5 ng/ml 12 h, then compound (1) 25 μg/ml 24 h); 1.68 fold with BMP-7 protein (Group III: TGF-β1 5 ng/ml 12 h, then compound (1) 35 μg/ml 24 h). The “Relative expression level (fold) α-SMA” value in the assay on α-SMA (Group α: mRNA, FGM-2 medium 1% serum + compound (1) 5 μg/ml, control group = 1) was found to be 0.46 fold; with α-SMA (Group β: mRNA, FGM-2 medium 1% serum + compound (1) 10 μg/ml, control group = 1), 0.64 fold; in the assay on α-SMA (Group δ: mRNA, F-12K medium 1% serum + H2O2 0.1 mM + compound (1) 5 μg/ml, control group = 1, H2O2-only group γ = 0.92), 0.56 fold; in the assay with α-SMA (Group ε: mRNA, F-12K medium 1% serum + H2O2 0.1 mM + compound (1) 10 μg/ml, control group = 1, H2O2-only group γ = 0.92) it was 0.37 fold.
